Data on three compounds can be found in patent US20080279812A1, “Disease Prevention and Vaccination Prior to Thymic Reactivation” (Norwood Immunology, Ltd., priority 2003, published 2008).

A value given as a limit tells only on which side of the number the result lay.

A short description of assay [1]: GnRH agonist in metastatic prostate cancer, haemopoiesis and neutrophil count (Example 28). Type of assay: in vivo, human. Particulars: within the first 14 days of therapy. Here is the method: All patients also received an anti-androgen drug. Cosudex® may also be given (5 mg/day or 50 mg/day orally) for 1 month. All patients undergo a Full Blood Analysis (FBA) prior to the commencement of therapy. FBA involves standard pathology analysis of lymphocytes, white blood cells, hematocrit and red blood cell content. In addition, analysis of immunological parameters including T cell stimulation, cytokine production, immune cell subsets and TREC analysis are performed. Additionally, blood samples from each patient are drawn at days −2, 0, 1, 2, 3, 7, 10, 14, 21, and 28, and monthly thereafter for 6 months. The blood samples are then evaluated for WBC, neutrophils, T cells (by FACS analysis, as described in detail above), granulocytes levels, and hematocrit, using the methods described in detail elsewhere herein, as well as methods well known to those skilled in the art.

Assay [2] is described as follows: G-CSF with or without Lupron in small cell lung cancer patients on chemotherapy (Example 26). Type of assay: in vivo, human.
For assay [3], the system named is H1N1 strains of Influenza. Type of assay: in vivo, human. Particulars: patients in all groups, after influenza vaccination.
In a further assay the test system is sex steroids. The settings on record: 30 mg injection; cited from earlier work.
The nature of assay [4]: GnRH analog before allogeneic BMT (Example 27). Type of assay: in vivo, human. As to the method: In a randomized unblinded study 20 patients are treated with a GnRH analog prior to receiving a BMT. This patient group is to a control group (n=19) who also undergo a BMT, but will not receive a GnRH analog.
All patients receive an allogeneic graft from a matched donor in accordance with accepted medical techniques (Lincz et al., (2001) Leuk. and Lymph. 40: 373).
Prior to transplant, the BM from all patients is ablated using standard ablating drugs and techniques (Segeren et al., (1999). Br. J. Haem. 105:127-130).
Blood samples from each patient are drawn at days −21, −2, 0, 1, 2, 3, 7, 10, 14 and 21. The blood samples are then evaluated for WBC, neutrophils, T cells (by FACS analysis, as described in detail above), granulocytes levels, and hematocrit, using the methods described in detail elsewhere herein, as well as methods well known to those skilled in the art.
Additionally, all patients are monitored for infection rates (including viral infection), the use of antibiotics, febrile neutropenia, and mean days of severe neutropenia (ANC<0.5×10^9/L). These analyses are performed as outlined above, with the patients being followed up at 1 month, 3 months, 6 months and 9 months from the date of transplant.

Assay [5] relates to sex steroid levels. The assay can be described thus: Zoladex before autologous or allogeneic PBSCT (Example 31). Type of assay: in vivo, human. Particulars: implant from day -21 before PBSC infusion. Here is the method: Patients are male or female, aged 18 years or older that are due to undergo high-dose therapy (HDT) with PBSCT for malignant disease or BM failure. The 10.8 mg implant formulation (for men) of the Zoladex® is dispersed in a cylindrical rod of biodegradable and biocompatible polyglactins and is released continuously over 12 weeks following subcutaneous injection. The 3.6 mg implant (for women) is dispersed in a cylindrical rod of a biodegradable and biocompatible polyglactin and is released continuously over 28 days following subcutaneous injection. The implants are commercially supplied in a purpose-designed applicator with 14-16 gauge needles.
Reduction of sex steroids in the blood to minimal values may take several weeks. Consequently, 21 days prior to PBSC infusion (day 0), patients are injected with the sex steroid ablation therapy in the form of LHRH agonist Zoladex® (implant). For males, 10.8 mg goserelin as a single dose (effective for 3 months) are administered on day −21 with a further injection of 3.6 mg on day 63 (effective for 28 days). For females, 3.6 mg (effective for 28 days) are administered on day −21 and days 7, 35 and 63. […] Other doses may be deemed acceptable as determined readily by those skilled in the art. […]
Thymic function is determined by assessment of T cell subsets by flow cytometry, T cell responses in vitro, and production of TRECs.

The subject of assay [6] is pituitary LH, serum testosterone. Particulars: chronic administration, cited from earlier work.
In assay [7] the test system is sex steroid levels. The assay can be described thus: Sex steroid ablation therapy of a patient with an LHRH agonist (Example 6). Type of assay: in vivo, human. The settings on record: single dose effective for 3 months. As to the method: The patient was given sex steroid ablation therapy in the form of delivery of an LHRH agonist. This was given in the form of either Leucrin (depot injection; 22.5 mg) or Zoladex® (implant; 10.8 mg), either one as a single dose effective for 3 months. […] In some cases it is also necessary to deliver a suppresser of adrenal gland production of sex steroids. Cosudex® (5 mg/day or 50 mg/day) may also be given as one tablet per day for the duration of the sex steroid ablation therapy. Alternatively, the patient is given a GnRH antagonist, e.g., Cetrorelix or Abarelix, as a subcutaneous injection

Assay [8] concerns IL-7-dependent murine pre-B cell line 2E8. The assay can be described thus: Thymidine incorporation proliferation assay with IL-7-dependent pre-B cell line. Type of assay: cell-based. The settings on record: 2E8 cell line. As to the method:
Tissue culture medium consisted of RPMI 1640 supplemented with 10% heat inactivated fetal calf serum, 100 U/mL penicillin, […] streptomycin, and 2 mM L-glutamine (as well as […] 2-mercaptoethanol for the culture of 32Dp210 cells and proliferation assays).
On the technique in general: Dividing cells build labelled thymidine or BrdU into new DNA.

The test system of the next assay is thymic cellularity. Kind of assay: IL-7 administration with or without castration in allogeneic HSCT recipients, thymic cellularity. In kind it is in vivo, mice. The text has this:
Mice and HSCT. Male C57BL/6J (B6, H-2b), C3FeB6F1/J([B6 3 C3H]F1; H-2b/k), B10.BR (H-2k), B6D2F1/J (H-2b/d), CBA/J (H-2k), Balb/c (H2-d), IL7−/− and KGF−/− mice were obtained from the Jackson Laboratory (Bar Harbor, Me.) and used in experiments when they were between 8 and 12 weeks of age. KGF−/− and IL7−/− were used between 4 and 7 months of age. HSCT protocols were approved by the Memorial Sloan-Kettering Cancer Center Institutional Animal Care and Use Committee. The BM cells were removed aseptically from femurs and tibias. Donor BM was depleted of T cells by incubation with anti-Thy-1.2 for 30 mins. at 4° C. followed by incubation with Low-TOX-M rabbit complement (Cedarlane Laboratories, Hornby, ON, Canada) for 1 hour at 37° C. Splenic T cells (for GVHD analysis) were obtained by purification over a nylon wool column followed by red cell removal with ammonium chloride red cell lysis buffer. Cells (5×10^6 BM cells with or without splenic T cells and leukemia cells) were resuspended in Dulbecco modified essential medium (Life Technologies, Grand Island, N.Y.) and transplanted by tail vein infusion (0.25 mL total volume) into lethally irradiated recipients on day 0. Prior to transplantation, on day 0, recipients received 1300 cGy total body irradiation (^137Cs source) as split dose with 3 hours between doses (to reduce gastrointestinal toxicity). Mice were housed in sterilized microisolator cages and received normal chow and autoclaved hyperchlorinated drinking water (pH 3.0).
Administration of IL-7. IL-7 were either given from days 0 to 13 or 21 to 27 intraperitoneally at 10 μg/day for immune reconstitution studies. PBS was injected into control mice at the same time-points.
Flow Cytometric Analysis. BM cells, splenocytes or thymocytes were washed in FACS buffer (phosphate buffered saline (PBS)/2% bovine serum albumin (BSA)/0.1% azide) and 1-3×10^6 cells were incubated for 30 mins. at 4° C. with CD16/CD32 FcR block. Cells were then incubated for 30 mins. at 4° C. with primary antibodies and washed twice with FACS buffer. Where necessary, cells were incubated with conjugated Streptavidin for a further 30 mins. at 4° C. The stained cells were resuspended in FACS buffer and analyzed on a FACSCalibur™ flow cytometer (Becton Dickinson, San Jose, Calif.) with CellQuest™ software.

Turning to `CCNC(=O)[C@@H]1CCCN1C(=O)[C@H](CCCNC(=N)N)NC(=O)[C@H](CC(C)C)NC(=O)[C@@H](CC(C)C)NC(=O)[C@H](Cc1ccc(O)cc1)NC(=O)[C@H](CO)NC(=O)[C@H](Cc1c[nH]c2ccccc12)NC(=O)[C@H](Cc1c[nH]cn1)NC(=O)[C@@H]1CCC(=O)N1` [Lupron®, leuprolide acetate], the “patients with an increase in haemopoiesis (T cell analysis) and neutrophil count versus baseline” value in [1] was “approximately 70%”. For the same compound, the “results versus higher Lupron dosage (Group 2)” value in assay [2] (G-CSF plus low dose Lupron 11.25 mg (Group 3)) is on record as “not statistically different”. Also, the “results versus Group 2” value in [2] (Lupron 22.5 mg on day 14 pre-chemotherapy (Group 4)) is given as “not statistically different”. In addition, in assay [3], the “hemagglutination-inhibition antibody titer versus prior to therapy” value is listed as “higher hemagglutination-inhibition antibody titer”. In the assay with sex steroids, the “duration of sex steroid ablation” value is “four months”. The “infection rates between the 2 groups” value in assay [4] (3, 6 and 9 months from transplant) is “statistically different”. Moreover, the “WBC counts, mean days of severe Neutropenia (ANC <500/mm^3) and febrile neutropenia versus non-treated group” value in [4] (up to day 21 from transplantation) is “clinically and statistically significant reduction”. Also, the “incidence of viral and other infection rates between the two groups” value in assay [4] (up to month 1) is given as “not be statistically significant”.
As for `CC(C)C[C@H](NC(=O)[C@@H](COC(C)(C)C)NC(=O)[C@H](Cc1ccc(O)cc1)NC(=O)[C@H](CO)NC(=O)[C@H](Cc1c[nH]c2ccccc12)NC(=O)[C@H](Cc1cnc[nH]1)NC(=O)[C@@H]1CCC(=O)N1)C(=O)N[C@@H](CCCNC(=N)N)C(=O)N1CCC[C@H]1C(=O)NNC(N)=O` [Zoladex®, goserelin acetate], the “reduction of sex steroid levels” value in the assay on sex steroid levels [5] and with sex steroid levels [7] was “effective in reducing sex steroid levels sufficiently to reactivate the thymus” each time. Further, the “time to sustained suppression of pituitary LH” value in [6] (after initiation of therapy) is reported as no more than 3 weeks. For the same compound, in [6], the “serum testosterone levels in males” value is recorded as “range normally seen in surgically castrated men”.
With “IL-7: Recombinant human IL-7 provided by Cytheris”, the “proliferative effect on murine cells” value in assay [8] is “equal to murine IL-7”. For the same compound, in the assay with thymic cellularity (day 14 after allo-HSCT), the “thymic cellularity, combined castration and IL-7 versus castrated group” value was “no significant difference”; the “thymic cellularity, combined castration and IL-7 versus control” value is listed as “significantly more cells”. Besides, in the assay with thymic cellularity (day 14 after allo-HSCT, 10 μg/day i.p. days 0-13), the “thymic cellularity, IL-7 treated sham-castrated versus PBS treated sham-castrated” value is listed as “no difference”. For the same compound, in the assay with thymic cellularity (day 28 after allo-HSCT, IL-7 days 21-27), the “thymic cellularity, IL-7 alone group versus control group” value was “significantly higher than the control group”. For the same compound, the “effect of combination of IL-7 treatment and castration on thymic cellularity” value with thymic cellularity (day 28 after allogeneic HSCT) is on record as “additive effect”.
